Broadly, the melting point is the temperature of the solid-liquid transition.

Take `OCc1cc(O)cc2c1O[C@@H](c1ccc(O)cc1)[C@H]1CCC[C@@H]21` (single isomer, unassigned) [Example 2B]: the melting point fell in the range of 195 to 197 °C.
Take `CCOCc1cc(O)cc2c1O[C@@H](c1ccc(O)cc1)[C@H]1CCC[C@@H]21` (single isomer, unassigned) [Example 3B]: the melting point is 62 to 66 °C.
As for `COCc1cc(O)cc2c1O[C@@H](c1ccc(O)cc1)[C@H]1CCC[C@@H]21` [Example 1B, (3aS, 4R, 9bR)-4-(4-Hydroxy-phenyl)-6-methoxymethyl-1,2,3,3a,4,9b-hexahydro-cyclopenta[c]chromen-8-ol], the figure is 76 to 80 °C.
